Measurements: publication PMC12051620, “Molecular basis underlying the specificity of an antagonist AA92593 for mammalian melanopsins” (The Journal of Biological Chemistry, 2025)

Tests used:
[1] = system: chicken Opn4-1 WT; assay: GsX GloSensor assay with Gsα/q11; format: cell-based; conditions: 16.7 μM AA92593, COS-1 cells
Source text: (§1) The GsX GloSensor assay using Gsα/q11 of Xenopus Opn4x and chicken Opn4-1 detected the light-dependent Gq activation in both non-mammalian-type melanopsins (Fig. 6, A and D). […] The ineffectiveness of AA92593 is consistent with the fact that Phe-94^2.61, Ser-188^ECL2, and Ser-269^6.52 are not conserved among non-mammalian-type melanopsins (Figs. 2A, S2 and S3). If these three residues are important for the antagonistic effect against melanopsins, the introduction of Phe-94^2.61/Ser-188^ECL2/Ser-269^6.52 into the non-mammalian-type melanopsins would make them susceptible to AA92593. As expected, the substitutions of C94^2.61F/T188S^ECL2/A269^6.52S in Xenopus Opn4x and chicken Opn4-1 increased their sensitivity to AA92593 by ∼49% and ∼22%, respectively (Fig. 6, B and E, G–I). Based on the loss-of-function properties of F94^2.61C/S188^ECL2T/S269^6.52A mutants of mammalian-type melanopsins and the gain-of-function properties of C94^2.61F/T188^ECL2S/A269^6.52S mutants of non-mammalian-type melanopsins (Figs. 2G, 3E, 6, G and H), we propose that Phe-94^2.61, Ser-188^ECL2, and Ser-269^6.52 are required for specific interactions with AA92593 as an effective antagonist. […]

[2] = molecular target: T1, Xenopus Opn4x WT (Xenopus laevis, UniProt O57422); assay: GsX GloSensor assay with Gsα/q11; format: cell-based; conditions: 16.7 μM AA92593, COS-1 cells
T1 construct: expressed in transfected cells; host or cells: COS-1
T1 sequence (O57422 1-334 limits assumed): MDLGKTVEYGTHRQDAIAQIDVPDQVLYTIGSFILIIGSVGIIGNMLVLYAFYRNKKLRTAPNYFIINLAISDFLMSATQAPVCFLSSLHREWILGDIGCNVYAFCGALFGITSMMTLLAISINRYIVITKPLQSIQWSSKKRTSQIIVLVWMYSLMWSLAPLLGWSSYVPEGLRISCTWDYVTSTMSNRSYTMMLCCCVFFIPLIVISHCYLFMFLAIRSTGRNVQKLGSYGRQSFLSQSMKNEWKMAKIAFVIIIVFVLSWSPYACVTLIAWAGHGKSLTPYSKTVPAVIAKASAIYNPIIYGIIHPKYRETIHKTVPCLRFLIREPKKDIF
Source text: as §1

## COc1ccc(S(=O)(=O)N2CCCCC2)cc1C [AA92593]
[1]
  inhibition of the light-dependent responses: did not effectively inhibit
[2]
  inhibition of the light-dependent responses: did not effectively inhibit
